PMC7925357 (European journal of medicinal chemistry, 2020)
Like-named read-outs stand apart in the source and are kept apart here.

Key:
hM3Dq [1] = target: T1, hM3Dq (Homo sapiens, UniProt P20309, A239G/Y149C); test: [3H]CLZ competition binding, membranes of HEK293 cells transfected with hM3Dq
hM4Di [2] = target: T2, hM4Di (Homo sapiens, UniProt P08173, A203G/Y113C); test: [3H]CLZ competition binding, membranes of HEK293 cells transfected with hM4Di
T2 sequence (P08173 1-479 Y113C/A203G): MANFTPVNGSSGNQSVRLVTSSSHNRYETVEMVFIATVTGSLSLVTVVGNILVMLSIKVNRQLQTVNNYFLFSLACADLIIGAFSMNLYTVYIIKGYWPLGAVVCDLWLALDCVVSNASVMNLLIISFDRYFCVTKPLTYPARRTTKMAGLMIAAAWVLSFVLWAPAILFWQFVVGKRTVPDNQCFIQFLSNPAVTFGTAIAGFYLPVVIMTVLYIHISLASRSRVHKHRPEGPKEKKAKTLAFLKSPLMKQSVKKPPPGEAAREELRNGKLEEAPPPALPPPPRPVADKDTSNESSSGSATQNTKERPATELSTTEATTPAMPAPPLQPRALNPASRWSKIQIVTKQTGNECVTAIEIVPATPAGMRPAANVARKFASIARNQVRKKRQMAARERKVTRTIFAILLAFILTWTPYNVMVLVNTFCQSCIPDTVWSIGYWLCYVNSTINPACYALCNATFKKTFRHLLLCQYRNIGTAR

hM3Dq [3] = target: T1, hM3Dq; settings: read-out: hM3Dq EC50; DREADD agonist; cited from earlier work
hM3 = settings: read-out: hM3 EC50; selectivity versus native hM3; cited from earlier work
hM3Dq [4] = target: T1, hM3Dq; settings: read-out: Ki, nM hM3Dq; printed without SD; cited from earlier work
hM4Di [5] = target: T2, hM4Di; settings: read-out: Ki, nM hM4Di; printed without SD; cited from earlier work
hM3Dq [6] = target: T1, hM3Dq; test: PET imaging with [18F]7b in transgenic mice expressing hM3Dq; assay type: in vivo, mouse
wild-type mouse brain = test: PET imaging with [18F]7b in wild-type mouse; settings: wild-type mouse lacking DREADD expression
hM3Dq [7] = target: T1, hM3Dq; settings: hM3Dq Tg mice; cited from earlier work
[8] = at 50–60 min after injection, transgenic hM3Dq mice
[9] = baseline, cerebellum as reference tissue

T1 sequence (P20309 whole entry Y149C/A239G): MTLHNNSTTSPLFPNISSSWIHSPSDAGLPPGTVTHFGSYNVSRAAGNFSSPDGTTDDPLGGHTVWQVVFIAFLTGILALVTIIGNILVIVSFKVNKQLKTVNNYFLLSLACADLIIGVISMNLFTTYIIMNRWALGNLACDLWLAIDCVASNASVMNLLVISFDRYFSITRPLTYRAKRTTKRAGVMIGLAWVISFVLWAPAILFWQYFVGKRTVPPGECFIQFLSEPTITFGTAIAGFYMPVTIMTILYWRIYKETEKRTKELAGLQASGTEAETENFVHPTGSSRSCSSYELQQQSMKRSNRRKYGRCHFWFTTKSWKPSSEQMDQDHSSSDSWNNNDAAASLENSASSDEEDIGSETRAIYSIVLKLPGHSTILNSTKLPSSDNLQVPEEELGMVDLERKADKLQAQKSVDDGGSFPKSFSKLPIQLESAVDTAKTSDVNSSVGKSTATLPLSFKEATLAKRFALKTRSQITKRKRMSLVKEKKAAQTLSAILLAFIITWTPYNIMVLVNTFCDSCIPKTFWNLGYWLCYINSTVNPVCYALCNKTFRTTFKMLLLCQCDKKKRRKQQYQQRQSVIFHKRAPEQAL

CCN1CCN(C2=Nc3cc(Cl)ccc3Nc3c(F)cc(F)cc32)CC1 [Compound 7h, 8-Chloro-11-(4-ethylpiperazin-1-yl)-2,4-difluoro-5H-dibenzo[b,e][1,4]diazepine] showed a Ki (hM3Dq [1]) of 8.1 ± 0.9 nM and a Ki (hM4Di [2]) of 18.1 ± 5.4 nM.

For CCN1CCN(C2=Nc3cc(Cl)ccc3Nc3ccccc32)CC1 [Compound 1, 8-chloro-11-(4-ethylpiperazin-1-yl)-5H-dibenzo[b,e][1,4]diazepine], the EC50 (hM3Dq [3]) is listed as 1.3 nM and the EC50 (hM3) is listed as > 30000 nM.

For CN1CCN(C2=Nc3ccccc3Nc3ccccc32)CC1 [DCZ, deschloroclozapine], the Ki (hM3Dq [4]) is listed as 6.3 nM and the Ki (hM4Di [5]) is listed as 4.2 nM.

For CCN1CCN(C2=Nc3ccccc3Nc3ccc([18F])cc32)CC1 [[^18F]7b, 11-(4-Ethylpiperazin-1-yl)-2-[^18F]fluoro-5H-dibenzo[b,e][1,4]diazepine], the “maximum ratio of tissue to cerebellum, cortex” value (hM3Dq [6]; [8]) was 1.8, the “maximum ratio of tissue to cerebellum, striatum” value (hM3Dq [6]; [8]) was 3.0 and the “binding potential BPND, cortex” value (hM3Dq [6]; [9]) was 0.6. The “binding potential BPND, striatum” value (hM3Dq [6]; [9]) was 1.6, the “highest accumulation of radioactivity in the striatum (SUV)” value (hM3Dq [6]; baseline, striatum, mean ± SD of 3, transgenic hM3Dq mice) was 1.93 ± 0.33 SUV and the “accumulation of radioactivity in the brain” value (wild-type mouse brain) was “low accumulation of radioactivity in the brain”.

With CCN1CCN(C2=Nc3cc(Cl)ccc3Nc3c(F)cccc32)CC1 [Compound 7d, 8-Chloro-11-(4-ethylpiperazin-1-yl)-4-fluoro-5H-dibenzo[b,e][1,4]diazepine] the “blocking effect on [18F]7b in the cerebellum” value (hM3Dq [6]; 7d as blocker, dose escalation) was “insignificant” and the “blocking of [18F]7b binding potential in the cortex versus baseline” value (hM3Dq [6]; 7d as blocker, dose escalation up to 0.5 mg/kg) was “significant only at the highest dose of blocker”.

For [11CH3]N1CCN(C2=Nc3ccccc3Nc3ccccc32)CC1 [[^11C]DCZ, [^11C]deschloroclozapine], the STR/CB ratio value (hM3Dq [7]) is given as 2.7.
